# Laboratory results reported in patent US12612386B2, “Heteroaryl-triazole compounds as pesticides” (Bayer Aktiengesellschaft, priority 2020, dated 2026).
# Columns and labels:
# Format in all cases: in vivo
# [1] = system: larvae of the southern green stink bug (Nezara viridula); experiment: whole plant or invertebrate; conditions: 96 h
# Procedure: Nezara viridula—Spray Test
# (§1) • Solvent: 78.0 parts by weight of acetone • 1.5 parts by weight of dimethylformamide • Emulsifier: alkylarylpolyglycol ether
# (§2) To produce a suitable preparation of active compound, 1 part by weight of active compound is mixed with the stated amount of solvent, and the concentrate is diluted with water, containing an emulsifier concentration of 1000 ppm, to the desired concentration. Further test concentrations are prepared by dilution with emulsifier containing water.
# Barley plants (Hordeum vulgare) are sprayed with a test solution containing the desired concentration of the active ingredient and are infested with larvae of the southern green stink bug (Nezara viridula).
# After 4 days mortality in % is determined. 100% means all the stink bugs have been killed; 0% means none of the stink bugs have been killed.
# [2] = system: green peach aphid (Myzus persicae); experiment: Myzus persicae spray test (MYZUPE); conditions: 120 h; for mortality at 100 g/ha: after 5 days; for Emax at 20 g/ha: 20 g ai/ha; for Emax at 100 g/ha: 100 g ai/ha
# Procedure: Myzus persicae—Spray Test
# • Solvent: 78.0 parts by weight acetone • 1.5 parts by weight dimethylformamide • Emulsifier: alkylarylpoly glycol ether
# as §2, with “solvents” for “solvent,”, “and” for “and the concentrate”
# Chinese cabbage (Brassica pekinensis) leaf disks infected with all instars of the green peach aphid (Myzus persicae), are sprayed with a preparation of the active ingredient of the desired concentration.
# After 5 days mortality in % is determined. 100% means all aphids have been killed and 0% means none of the aphids have been killed.
# Myzus persicae—Spray Test (MYZUPE)
# (§3) • Solvent: 78.0 parts by weight acetone • 1.5 parts by weight dimethylformamide • Emulsifier: alkylarylpolyglycol ether
# After the specified period of time, mortality in % is determined. 100% means all aphids have been killed and 0% means none of the aphids have been killed.
# [3] = system: larvae of the banded cucumber beetle (Diabrotica balteata); experiment: Diabrotica balteata spray test; conditions: 168 h, 100 g/ha (=32 μg/well), after 7 days, read-out: efficacy (seedling growth)
# Procedure: Diabrotica balteata—Spray Test
# as §1, §2
# Soaked wheat seeds (Triticum aestivum) are placed in a multiple well plate filled with agar and some water and are incubated for 1 day to germinate (5 seeds per well). The germinated wheat seeds are sprayed with a test solution containing the desired concentration of the active ingredient. Afterwards each unit is infected with 10-20 larvae of the banded cucumber beetle (Diabrotica balteata).
# After 7 days efficacy in % is determined. 100% means all the seedlings have grown up like in the untreated, uninfected control; 0% means none of the seedlings have grown.
# [4] = system: fall armyworm larvae (Spodoptera frugiperda); experiment: whole plant or invertebrate; conditions: 168 h; for Emax at 20 g/ha / Emax at 100 g/ha: SPODFR, 7 dat (Table 4), read-out: % Efficacy; for Emax at 20 g/ha: 20 g ai/ha; for Emax at 100 g/ha: 100 g ai/ha
# Procedure: Spodoptera frugiperda—Spray Test
# as §3
# as §2, with “solvents” for “solvent,”, “and” for “and the concentrate”
# Maize (Zea mays) leaf sections are sprayed with a preparation of the active ingredient of the desired concentration. Once dry, the leaf sections are infested with fall armyworm larvae (Spodoptera frugiperda).
# After 7 days mortality in % is determined. 100% means all caterpillars have been killed and 0% means none of the caterpillars have been killed.
# Spodoptera frugiperda—Spray Test (SPODFR)
# After the specified period of time, mortality in % is determined. 100% means all caterpillars have been killed and 0% means none of the caterpillars have been killed.
# [5] = MYZUPE, 5 dat (Table 4), read-out: % Efficacy
SMILES,mortality at 500 g/ha [1] [%],mortality at 100 g/ha [2] [%],"pest or weed control at 32 µg/disc, 100 g/ha [3] [%]",mortality at 100 g/ha [4] [%],also measured
Cc1nc([C@H](C)NC(=O)c2cc(Br)cc(OC(F)(F)F)c2)n(-c2cc(C(N)=O)ncn2)n1 [I-12],100,90,100,100,–
C[C@H](NC(=O)c1cc(OC(F)(F)F)cc(S(=O)(=O)C(F)F)c1)c1ncnn1-c1cc(C(N)=O)ncn1 [I-45],100,90,100,100,–
C[C@H](NC(=O)c1cccc(I)c1)c1ncnn1-c1cc(C(N)=O)ncn1 [I-48],100,90,100,100,–
C[C@H](NC(=O)c1cc(OC(F)(F)F)cc(S(=O)(=O)C(F)(F)F)c1)c1ncnn1-c1cc(C(N)=O)ncn1 [I-58],100,90,100,100,–
"C[C@H](NC(=O)c1cc(Cl)cc(S(=O)(=O)C(F)(F)F)c1)c1ncnn1-c1ccccn1 [I-068 Known from WO 2019197468, reference compound]",–,–,–,–,"Emax at 20 g/ha [2, 5]: 0%; Emax at 100 g/ha [2, 5]: 0%"
Cc1nc([C@H](C)NC(=O)c2cc(Br)cc(Br)c2)n(-c2cc(C(N)=O)ncn2)n1 [I-71],90,90,100,100,–
"C[C@H](NC(=O)c1cc(Cl)cc(S(=O)(=O)C(F)(F)F)c1)c1ncnn1-c1cc(C#N)ccn1 [I-075 Known from WO 2019197468, reference compound]",–,–,–,–,"Emax at 20 g/ha [2, 5]: 70%; Emax at 100 g/ha [2, 5]: 90%; Emax at 20 g/ha [4]: 33%; Emax at 100 g/ha [4]: 100%"
C[C@H](NC(=O)c1cc(Cl)cc(S(=O)(=O)C(F)(F)F)c1)c1ncnn1-c1cc(C(N)=O)ncn1 [I-84],100,90,100,100,"Emax at 4 g/ha ([2]; MYZUPE, 4 g ai/ha, 5 dat (Table 4), read-out: % Efficacy): 90%; Emax at 20 g/ha [2, 5]: 100%; Emax at 100 g/ha [2, 5]: 90%; Emax at 20 g/ha [4]: 100%; Emax at 100 g/ha [4]: 100%"
CNC(=O)c1cc(-n2nc(C)nc2[C@H](C)NC(=O)c2cc(Br)cc(OC(F)F)c2)ncn1 [I-88],100,100,100,100,–
CC(C)N(C)C(=O)c1cc(-n2ncnc2[C@H](C)NC(=O)c2cc(OC(F)F)cc(OC(F)F)c2)ncn1 [I-97],–,90,–,100,–
CNC(=O)c1cc(-n2nc(C)nc2[C@H](C)NC(=O)c2cc(OC(F)F)cc(OC(F)F)c2)ncn1 [I-99],100,90,100,100,–
CC(C)N(C)C(=O)c1cc(-n2ncnc2[C@H](C)NC(=O)c2cc(Br)cc(OC(F)F)c2)ncn1 [I-103],–,90,100,100,–
CNC(=O)c1cc(-n2ncnc2[C@H](C)NC(=O)c2cccc(OC(F)(F)F)c2)ncn1 [I-110],100,90,100,100,–
C[C@H](NC(=O)c1cc(Br)cc(OC(F)(F)C(F)F)c1)c1ncnn1-c1cc(C(N)=O)ncn1 [I-112],–,100,100,100,–
"C[C@H](NC(=O)c1cc(Cl)cc(OC(F)(F)C(F)F)c1)c1ncnn1-c1cc(C(N)=O)ncn1 [I-113, 6-(5-{(1S)-1-[3-chloro-5-(1,1,2,2-tetrafluoroethoxy)benzamido]ethyl}-1H-1,2,4-triazol-1-yl)pyrimidine-4-carboxamide]",–,90,–,100,–
C[C@H](NC(=O)c1cc(Br)cc(C#N)c1)c1ncnn1-c1cc(C(N)=O)ncn1 [I-124],100,90,100,100,mortality at 100 g/ha [1]: 100%

SMILES,mortality at 500 g/ha [1] [%],mortality at 100 g/ha [2] [%],"pest or weed control at 32 µg/disc, 100 g/ha [3] [%]",mortality at 100 g/ha [4] [%],also measured
C[C@H](NC(=O)c1cc(Br)cc(S(C)(=O)=O)c1)c1nc(C2CC2)nn1-c1cc(C(N)=O)ncn1 [I-143],100,100,–,100,–
C[C@H](NC(=O)c1cc(Br)nc(Br)c1)c1ncnn1-c1cc(C(N)=O)ncn1 [I-148],100,–,100,100,–
C[C@H](NC(=O)c1cc(Cl)cc(S(C)(=O)=O)c1)c1nc(C2CC2)nn1-c1cc(C(N)=O)ncn1 [I-150],100,90,–,100,–
C[C@H](NC(=O)c1cc(OC(F)F)cc(OC(F)F)c1)c1nc(C2CC2)nn1-c1cc(C(N)=O)ncn1 [I-152],–,100,100,100,–
C[C@H](NC(=O)c1cc(OC(F)(F)F)cc(S(=O)(=O)C(F)F)c1)c1nc(C2CC2)nn1-c1cc(C(=O)N(C)C)ncn1 [I-156],–,90,100,100,–
C[C@H](NC(=O)c1cc(OC(F)(F)F)cc(C2CC2)c1)c1nc(C2CC2)nn1-c1cc(C(=O)N(C)C)ncn1 [I-159],–,90,100,100,–
C[C@H](NC(=O)c1cc(Cl)cc(S(C)(=O)=O)c1)c1nc(C2CC2)nn1-c1cc(C(=O)N(C)C)ncn1 [I-160],–,100,100,83,–
C[C@H](NC(=O)c1cc(Cl)cc(S(=O)(=O)C(F)F)c1)c1nc(C2CC2)nn1-c1cc(C(=O)N(C)C)ncn1 [I-161],–,90,100,100,–
C[C@H](NC(=O)c1cc(I)cc(OC(F)F)c1)c1ncnn1-c1cc(C(N)=O)ncn1 [I-162],100,90,100,100,–
CC(C)NC(=O)c1cc(-n2ncnc2[C@H](C)NC(=O)c2cc(OC(F)(F)F)cc(C3(C#N)CC3)c2)ncn1 [I-163],–,100,100,100,–
C[C@H](NC(=O)c1cc(C(F)(F)F)cc(S(C)(=O)=O)c1)c1nc(C2CC2)nn1-c1cc(C(=O)N(C)C)ncn1 [I-164],–,100,80,–,–
C[C@H](NC(=O)c1cc(Cl)cc(OC(F)(F)F)c1)c1nc(C2CC2)nn1-c1cc(C(=O)N(C)C)ncn1 [I-166],–,100,100,100,–
C[C@H](NC(=O)c1cc(OC(F)(F)F)cc(C2(C#N)CC2)c1)c1nc(C2CC2)nn1-c1cc(C(=O)N(C)C)ncn1 [I-167],–,100,80,100,–
CCNC(=O)c1cc(-n2ncnc2[C@H](C)NC(=O)c2cc(OC(F)(F)F)cc(C3(C#N)CC3)c2)ncn1 [I-168],–,100,100,100,–
C[C@H](NC(=O)c1cc(OC(F)(F)F)cc(C2(C#N)CC2)c1)c1ncnn1-c1cc(C(=O)NC2CC2)ncn1 [I-169],–,90,100,100,–
